Measurements: ChEMBL document CHEMBL4177539, “Discovery of N-((3R,4R)-4-Fluoro-1-(6-((3-methoxy-1-methyl-1H-pyrazol-4-yl)amino)-9-methyl-9H-purin-2-yl)pyrrolidine-3-yl)acrylamide (PF-06747775) through Structure-Based Drug Design: A High Affinity Irreversible Inhibitor Targeting Oncogenic EGFR Mutants with Selectivity over Wild-Type EGFR” (J Med Chem, 2017)

What was measured:
[1] = species on record: Homo sapiens; assay: Selectivity index, ratio of IC50 for wild-type EGFR autophosphorylation in human A549 cells to IC50 for EGFR T790M/L858R double mutant autophosphorylation in human H1975 cells; format: cell-based
[2] = physchem; conditions: octanol/water
[3] = system: Hepatocyte; conditions: human, hepatocytes, 1 µM
[4] = in vitro; conditions: human, liver microsomes
[5] = in vitro; conditions: dog, MDCK
[6] = target: Epidermal growth factor receptor (Homo sapiens, UniProt P00533)
Chain of Epidermal growth factor receptor (P00533 whole entry): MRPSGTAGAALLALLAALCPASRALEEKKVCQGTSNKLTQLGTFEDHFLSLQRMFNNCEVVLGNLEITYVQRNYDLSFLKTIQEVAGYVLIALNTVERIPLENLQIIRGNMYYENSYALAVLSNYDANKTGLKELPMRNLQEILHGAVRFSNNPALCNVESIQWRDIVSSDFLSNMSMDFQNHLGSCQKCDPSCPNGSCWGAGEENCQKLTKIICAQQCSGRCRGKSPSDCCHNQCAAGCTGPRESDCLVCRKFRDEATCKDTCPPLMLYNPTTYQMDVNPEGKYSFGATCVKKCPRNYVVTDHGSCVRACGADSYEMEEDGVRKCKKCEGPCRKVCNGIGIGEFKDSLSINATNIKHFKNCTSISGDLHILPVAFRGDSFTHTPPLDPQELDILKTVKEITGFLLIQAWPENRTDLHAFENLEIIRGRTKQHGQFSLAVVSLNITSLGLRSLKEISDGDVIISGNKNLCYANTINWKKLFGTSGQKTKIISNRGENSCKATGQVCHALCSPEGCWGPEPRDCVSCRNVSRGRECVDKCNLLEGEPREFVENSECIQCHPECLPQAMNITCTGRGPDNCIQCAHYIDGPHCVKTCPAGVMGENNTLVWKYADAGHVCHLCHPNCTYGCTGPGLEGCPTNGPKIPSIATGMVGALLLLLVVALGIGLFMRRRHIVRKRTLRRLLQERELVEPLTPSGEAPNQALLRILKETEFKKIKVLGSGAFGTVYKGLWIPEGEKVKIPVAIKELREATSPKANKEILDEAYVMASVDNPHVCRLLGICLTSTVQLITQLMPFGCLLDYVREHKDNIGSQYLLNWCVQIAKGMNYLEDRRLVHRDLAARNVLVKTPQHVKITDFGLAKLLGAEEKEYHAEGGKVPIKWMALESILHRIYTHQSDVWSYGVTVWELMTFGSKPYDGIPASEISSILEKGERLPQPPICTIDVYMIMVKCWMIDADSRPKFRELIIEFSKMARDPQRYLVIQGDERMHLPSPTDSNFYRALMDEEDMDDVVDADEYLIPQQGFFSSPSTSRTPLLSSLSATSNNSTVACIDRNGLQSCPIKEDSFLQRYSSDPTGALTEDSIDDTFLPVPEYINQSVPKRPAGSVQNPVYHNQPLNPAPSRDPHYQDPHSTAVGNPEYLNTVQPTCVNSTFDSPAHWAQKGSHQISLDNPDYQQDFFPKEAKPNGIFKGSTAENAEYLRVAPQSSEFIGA

Structure (SMILES)	Ratio IC50 [1]	logD [2]	CLH [3] [µL/min/mg]	microsomal CLint at […], 1 µM [4] [µL/min/mg]	Papp [5] [×10⁻⁶ cm/s]	IC50 [6] [µM]
C=CC(=O)N1C[C@@H]2CN(c3nc(Nc4cnn(C)c4)c4ncn(C(C)C)c4n3)C[C@@H]2C1	16	2.2				
C=CC(=O)N[C@@H]1CN(c2nc(Nc3cn(C)nc3OC)c3ncn(C(C)C)c3n2)C[C@H]1F		2.6	23	32	18	
C=CC(=O)N[C@@H]1CCN(c2nc(Nc3ccc(N4CCN(C)CC4)cc3)c3ncn(C(C)C)c3n2)C1		2				
C=CC(=O)N1CC[C@H](Nc2nc(Nc3ccc(N4CCN(C)CC4)cc3)c3ncn(C(C)C)c3n2)C1	> 35	1.8				> 10
